We go through 33 molecules from patent US20260265195A1, “SARM1 MODULATORS, PREPARATIONS, AND USES THEREOF” (SIRONAX LTD, priority 2022, published 2026).

Structures are written as SMILES.

The assay concerns the target T1, SARM1 (50-724) (Homo sapiens, UniProt Q6SZW1).
T1 construct: Purified SARM1 (50-724) with a final concentration of 2 nM
T1 sequence (Q6SZW1 50-724): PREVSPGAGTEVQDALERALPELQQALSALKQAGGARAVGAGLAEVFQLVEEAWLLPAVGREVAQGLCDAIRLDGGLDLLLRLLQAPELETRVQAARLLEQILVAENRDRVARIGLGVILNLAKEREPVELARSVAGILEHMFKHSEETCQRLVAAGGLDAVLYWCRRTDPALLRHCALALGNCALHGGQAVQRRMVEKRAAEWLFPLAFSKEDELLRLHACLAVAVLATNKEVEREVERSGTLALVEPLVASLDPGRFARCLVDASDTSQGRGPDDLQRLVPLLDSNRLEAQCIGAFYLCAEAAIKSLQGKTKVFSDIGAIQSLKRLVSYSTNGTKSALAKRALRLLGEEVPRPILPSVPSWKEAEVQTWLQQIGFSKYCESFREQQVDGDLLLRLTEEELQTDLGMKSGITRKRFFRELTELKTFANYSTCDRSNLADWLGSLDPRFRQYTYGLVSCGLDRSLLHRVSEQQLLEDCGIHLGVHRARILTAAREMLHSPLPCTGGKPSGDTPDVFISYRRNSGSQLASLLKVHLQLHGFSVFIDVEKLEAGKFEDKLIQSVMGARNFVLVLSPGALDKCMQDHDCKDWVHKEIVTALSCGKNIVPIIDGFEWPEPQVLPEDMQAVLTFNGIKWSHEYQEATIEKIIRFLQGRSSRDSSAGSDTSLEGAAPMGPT
The assay is described as follows: SARM1 (50-724) enzymatic assay (NMN-activated NAD+ hydrolysis, LC-MS/MS readout). The format is biochemical. Particulars: purified SARM1 (50-724) 2 nM, 200 μM NMN activator, 100 μM NAD+ substrate, 1 h at room temperature, read-out: IC50 (SARM1 inhibitory activity). The essentials:
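Purified human SARM1 (50-724), 2 nM final in DPBS, pre-incubated 15 min at RT with compound (1% DMSO), then started with 200 μM NMN activator and 100 μM NAD+. After 1 h at RT, quenched with 70% acetonitrile; analysed by LC-MS/MS.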
For the molecule `O=C1CCCN1CCN(C(=O)c1nc2ccc(C(F)(F)F)cc2[nH]1)c1cccc(Cl)c1Cl` [Compound 165, N-(2,3-dichlorophenyl)-N-(2-(2-oxopyrrolidin-1-yl)ethyl)-6-(trifluoromethyl)-1H-benzo[d]imidazole-2-carboxamide], the IC50 was 501 to 1000 nM.

Regarding `[2H]C([2H])([2H])N(C(=O)c1nc2cc(C(F)(F)F)ccc2[nH]1)c1cncc(Cl)c1C` [Compound 166, N-(5-chloro-4-methylpyridin-3-yl)-N-(methyl-d3)-5-(trifluoromethyl)-1H-benzo[d]imidazole-2-carboxamido], the IC50 was at most 100 nM.

Consider `COC1CN(CCN(C(=O)c2nc3cc(C(F)(F)F)ccc3[nH]2)c2cccc(Cl)c2Cl)C1` [Compound 167, N-(2,3-dichlorophenyl)-N-(2-(3-methoxyazetidin-1-yl)ethyl)-5-(trifluoromethyl)-1H-benzo[d]imidazole-2-carboxamide], for which the half-inhibitory concentration (IC50) is at most 100 nM.

With `CC(C)(O)CN(C(=O)c1nc2cc(C(F)(F)F)ccc2[nH]1)c1cccc(Cl)c1Cl` [Compound 168, N-(2,3-dichlorophenyl)-N-(2-hydroxy-2-methylpropyl)-5-(trifluoromethyl)-1H-benzo[d]imidazole-2-carboxamide], the IC50 was at most 100 nM.

As for `CC(O)CN(C(=O)c1nc2cc(C(F)(F)F)ccc2[nH]1)c1cccc(Cl)c1Cl` (stereo not drawn) [Compound 170], the 50% inhibitory concentration (IC50) was at most 100 nM.

For the molecule `O=C(c1nc2cc(CO)ccc2[nH]1)N(CCO)c1cccc(Cl)c1Cl` [Compound 171], the IC50 was in the range of 101 to 500 nM.

`Cc1cccc(N(CCO)C(=O)c2nc3cc(C(F)(F)F)ccc3[nH]2)c1F` [Compound 172, N-(2-fluoro-3-methylphenyl)-N-(2-hydroxyethyl)-5-(trifluoromethyl)-1H-benzo[d]imidazole-2-carboxamide]: the IC50 is 501 to 1000 nM.

As for `O=C(c1nc2cc(C(F)(F)F)ccc2[nH]1)N(CC1(CO)COC1)c1cccc(Cl)c1Cl` [Compound 174, N-(2,3-dichlorophenyl)-N-((3-(hydroxymethyl)oxetan-3-yl)methyl)-5-(trifluoromethyl)-1H-benzo[d]imidazole-2-carboxamido], the IC50 was at most 100 nM.

Take `Cc1c(Cl)cncc1N(CCO)C(=O)c1nc2c(Cl)c(Cl)ccc2[nH]1` [Compound 175]: the IC50 lay within 501 to 1000 nM.

As to `CN(C(=O)c1nc2c(C3CC(O)C3)cccc2[nH]1)C1CCCC1` (stereo not drawn) [Compound 176, N-cyclopentyl-4-((1s,3s)-3-hydroxycyclobutyl)-N-methyl-1H-benzo[d]imidazole-2-carboxamide], the concentration for half-maximal inhibition (IC50) is at least 1000 nM.

In the case of `O=C(c1nc2cc(C(F)(F)F)ccc2[nH]1)N(CC1CC(O)C1)c1cccc(Cl)c1Cl` (stereo not drawn) [Compound 177, N-(2,3-dichlorophenyl)-N-((3-hydroxycyclobutyl)methyl)-5-(trifluoromethyl)-1H-benzo[d]imidazole-2-carboxamide], the IC50 is at most 100 nM.

For `O=C(c1nc2cc(C(F)(F)F)ccc2[nH]1)N(CCOC1COC1)c1cccc(Cl)c1Cl` [Compound 178, N-(2,3-dichlorophenyl)-N-(2-(oxetan-3-yloxy)ethyl)-5-(trifluoromethyl)-1H-benzo[d]imidazole-2-carboxamide], the 50% inhibitory concentration (IC50) was at most 100 nM.

As for `O=C(c1nc2cc(C(F)(F)F)ccc2[nH]1)N(CCN1CC(O)C1)c1cccc(Cl)c1Cl` [Compound 179, N-(2,3-dichlorophenyl)-N-(2-(3-hydroxyazetidin-1-yl)ethyl)-5-(trifluoromethyl)-1H-benzo[d]imidazole-2-carboxamide], the IC50 was at most 100 nM.

On to `O=C(c1nc2cc(C(F)(F)F)ccc2[nH]1)N(CC1CS(=O)(=O)C1)c1cccc(Cl)c1Cl` [Compound 180, N-(2,3-dichlorophenyl)-N-((1,1-dioxidothietan-3-yl)methyl)-5-(trifluoromethyl)-1H-benzo[d]imidazole-2-carboxamide], for which the IC50 was at most 100 nM.

On to `CC1(CN(C(=O)c2nc3cc(C(F)(F)F)ccc3[nH]2)c2cccc(Cl)c2Cl)COC1` [Compound 181, N-(2,3-dichlorophenyl)-N-((3-methyloxetan-3-yl)methyl)-5-(trifluoromethyl)-1H-benzo[d]imidazole-2-carboxamide], for which the half-inhibitory concentration (IC50) is at most 100 nM.

Consider `CNC(=O)CN(C(=O)c1nc2cc(C(F)(F)F)ccc2[nH]1)c1cccc(Cl)c1Cl` [Compound 182, N-(2,3-dichlorophenyl)-N-(2-(methylamino)-2-oxoethyl)-5-(trifluoromethyl)-1H-benzo[d]imidazole-2-carboxamide], for which the concentration for half-maximal inhibition (IC50) was at most 100 nM.

For the molecule `CC(C)(O)c1ccc2[nH]c(C(=O)N(CC3(F)COC3)c3cccc(Cl)c3Cl)nc2c1` [Compound 183], the IC50 was at most 100 nM.

On to `Cc1c(Cl)cncc1N(CC1(F)COC1)C(=O)c1nc2cc(C(F)(F)F)ccc2[nH]1` [Compound 184, N-(5-chloro-4-methylpyridin-3-yl)-N-((3-fluorooxetan-3-yl)methyl)-5-(trifluoromethyl)-1H-benzo[d]imidazole-2-carboxamide], for which the IC50 fell in the range of 101 to 500 nM.

Turning to `O=C(c1nc2cc(C(F)(F)F)ccc2[nH]1)N(CC(F)(F)CO)c1cccc(F)c1Cl` [Compound 185, N-(2-chloro-3-fluorophenyl)-N-(2,2-difluoro-3-hydroxypropyl)-5-(trifluoromethyl)-1H-benzo[d]imidazole-2-carboxamide], the IC50 is at most 100 nM.

For `O=C(c1nc2cc(C(F)(F)F)ccc2[nH]1)N(CC1(F)COC1)c1cccc(F)c1Cl` [Compound 186, N-(2-chloro-3-fluorophenyl)-N-((3-fluorooxetan-3-yl)methyl)-5-(trifluoromethyl)-1H-benzo[d]imidazole-2-carboxamide], the concentration for half-maximal inhibition (IC50) was at most 100 nM.

`C=C(c1cn[nH]c1)c1ccc2[nH]c(C(=O)N(CCO)c3cccc(Cl)c3Cl)nc2c1` [Compound 187]: the IC50 is at most 100 nM.

As to `Cc1nsc(N(CC2(F)COC2)C(=O)c2nc3cc(C(F)(F)F)ccc3[nH]2)c1Cl` [Compound 188, N-(4-chloro-3-methylisothiazol-5-yl)-N-((3-fluorooxetan-3-yl)methyl)-5-(trifluoromethyl)-1H-benzo[d]imidazole-2-carboxamide], the concentration for half-maximal inhibition (IC50) was 101 to 500 nM.

Turning to `O=C(c1nc2cc(C3CC3)ccc2[nH]1)N(CCO)c1cccc(Cl)c1Cl` [Compound 190], the IC50 is at most 100 nM.

Take `O=C(c1nc2cc(C(F)(F)F)ccc2[nH]1)N(c1cccc(Cl)c1Cl)C1CC(O)C1` (stereo not drawn) [Compound 193, N-(2,3-dichlorophenyl)-N-(3-hydroxycyclobutyl)-5-(trifluoromethyl)-1H-benzo[d]imidazole-2-carboxamide]: the IC50 was at most 100 nM.

For the molecule `O=C(c1nc2cc(C(F)(F)F)ccc2[nH]1)N(CC1CC(O)C1)c1cccc(F)c1Cl` (stereo not drawn) [Compound 194, N-(2-chloro-3-fluorophenyl)-N-((3-hydroxycyclobutyl)methyl)-5-(trifluoromethyl)-1H-benzo[d]imidazole-2-carboxamide], the IC50 was at most 100 nM.

Take `CC1(c2ccc3[nH]c(C(=O)N(CCO)c4cccc(Cl)c4Cl)nc3c2)COC1` [Compound 195]: the half-maximal inhibitory concentration (IC50) is at most 100 nM.

`O=C(c1nc2cc(C(F)(F)F)ccc2[nH]1)N(CC1(O)CC1)c1cccc(Cl)c1Cl` [Compound 197, N-(2,3-dichlorophenyl)-N-((1-hydroxycyclopropyl)methyl)-5-(trifluoromethyl)-1H-benzo[d]imidazole-2-carboxamide]: the concentration for half-maximal inhibition (IC50) was at most 100 nM.

In the case of `CC(C)(O)CCN(C(=O)c1nc2cc(C(F)(F)F)ccc2[nH]1)c1cccc(Cl)c1Cl` [Compound 198, N-(2,3-dichlorophenyl)-N-(3-hydroxy-3-methylbutyl)-5-(trifluoromethyl)-1H-benzo[d]imidazole-2-carboxamide], the IC50 is at most 100 nM.

In the case of `O=C(c1nc2cc(C(F)(F)F)ccc2[nH]1)N(CCN1CCCS1(=O)=O)c1cccc(Cl)c1Cl` [Compound 199, N-(2,3-dichlorophenyl)-N-(2-(1,1-dioxidoisothiazolidin-2-yl)ethyl)-5-(trifluoromethyl)-1H-benzo[d]imidazole-2-carboxamide], the IC50 is at most 100 nM.

With `COCC1(CN(C(=O)c2nc3cc(C(F)(F)F)ccc3[nH]2)c2cccc(Cl)c2Cl)COC1` [Compound 200], the half-inhibitory concentration (IC50) was at most 100 nM.

Consider `CC(C)(C)c1ccc2[nH]c(C(=O)N(CCO)c3cccc(F)c3Cl)nc2c1` [Compound 201], for which the IC50 is at most 100 nM.

Regarding `O=C(CN(C(=O)c1nc2cc(C(F)(F)F)ccc2[nH]1)c1cccc(Cl)c1Cl)N1CCC1` [Compound 202, N-(2-(azetidin-1-yl)-2-oxoethyl)-N-(2,3-dichlorophenyl)-5-(trifluoromethyl)-1H-benzo[d]imidazole-2-carboxamide], the half-maximal inhibitory concentration (IC50) was at most 100 nM.

On to `O=C(c1nc2cc(C(F)(F)F)ccc2[nH]1)N(CCO)c1ccc(F)c(F)c1Cl` [Compound 203, N-(2-chloro-3,4-difluorophenyl)-N-(2-hydroxyethyl)-5-(trifluoromethyl)-1H-benzo[d]imidazole-2-carboxamide], for which the half-inhibitory concentration (IC50) is at most 100 nM.
